The values that follow come from patent publication US20070154393A1, “Bioassay for volatile low molecular weight insecticides and methods of use” (priority 2005, published 2007).

Like-named read-outs stand apart in the source and are kept apart here.

Series [1] concerns insecticide-susceptible Drosophila melanogaster (Canton-S strain). Format: in vivo. On the procedure:
The insecticide-susceptible Canton-S strain of Drosophila was obtained from the Bloomington Drosophila stock center (Indiana University, Bloomington, Ind.), and used exclusively in all studies. Flies were reared in 100-ml vials capped with acetate plugs (Fisher Scientific; Suwannee, Ga.) on a JAZZ-MIX diet (Fisher) prepared with a 2:1 ratio of water to apple juice. Flies were reared on a 12:12 photocycle at 24° C. and ambient relative humidity. Mixed-sex adults, less than 1-wk old, were used in bioassays.
Flies were briefly anesthetized in rearing vials with a pulse of CO2 and transferred to a CO2 flowbed (Genesee Scientific; San Diego, Calif.). Using a camel hair brush and a 5×5 cm sheet of rice paper, ten flies were placed into 7.0 ml dram vials. Prior to adding flies, each vial received a 0.5 cm^3 block of rearing diet that had been sufficiently dried on a paper towel to remove excessive moisture. The vials were then capped with open-top septum caps (Fisher) that were covered with fine mesh. The mesh was applied to the septum caps in advance using hot glue; it prevented fly escape but readily permitted gas exchange. The flies were allowed 1-hr to recover from the CO2 anesthesia. After one hour, single vials with flies were placed into 0.5 L glass jars, along with a filter paper tent (see FIG. 1). In a fume hood, filter paper tents were treated with insecticide dilutions or acetone for controls. The jars were then rapidly closed tightly with a metal lid. After 24 hours of exposure, mortality was scored with the aid of a magnifying glass.
All test compounds and solvents were >99% purity, and were purchased from Sigma-Aldrich Chemical (Milwaukee, Wis.). See Table 1 for a listing of the test compounds and their structures. Insecticide stock solutions were prepared at a standard concentration of 100 μg/μl in analytical grade acetone. For liquid insecticidal compounds, density in mg/μl was used to calculate weight on a per-volume basis. Stock solutions were held at −20° C. in sealed amber vials. In bioassay jars, filter paper tents were treated with stock volumes ranging from 2 to 20 μl, depending on the inherent toxicity of the test compound. These volumes of insecticide stock provided test concentrations of 200 to 2000 μg insecticide per replicate jar. A range of 4-5 concentrations plus a control were tested for each insecticide, and each range was repeated five times over at least three days. Controls received a volume of acetone identical to the highest insecticide volume that was tested (i.e., 10 μl for menthofuran; 20 μl for all other insecticides). Between uses, bioassay jars and lids were washed in a dishwasher, then baked 12-16 hr at 90° C. in a drying oven.
Probit and regression analyses were performed using the PROC PROBIT and PROC REG procedures, respectively. […] If control mortality ever exceeded 10% in a given replicate, that replicate was discarded.
Four Drosophila strains were used, all obtained from the Bloomington Drosophila Stock Center (Indiana University; Bloomington, Ind.). The Canton-S strain was used as the insecticide-susceptible standard. The Hikone-R strain is metabolically-resistant with elevated cytochrome P450 levels (Waters et al., 1984; Sundseth et al., 1989; Le Goff et al., 2003; Festucci-Buselli et al., 2005). Hikone-R is resistant to a number of insecticides, including malathion, DDT and neonicotinoids (Sundseth et al., 1989; Daborn et al., 2001). Two resistant neurological-mutant strains were also tested. […] Flies were reared in 100-ml vials capped with acetate plugs (Fisher Scientific; Suwanee, Ga.) on a commercial diet (JAZZ-MIX; Fisher Scientific). Flies were reared on a 12:12 photocycle at 24° C. and 60% relative humidity. Mixed-sex adults, less than 1-wk old, were used in bioassays.

Series [2] concerns metabolically-resistant Hikone-R strain of Drosophila (elevated cytochrome P450). Format: in vivo. Conditions: for Slope ± Std. Error (probit mortality line): Hikone-R, 24 hr; for response of Hikone-R relative to Canton-S (LC50 ratio Hikone÷Canton, FIG. 5), in words: significance at p<0.05, method of Robertson and Preisler. Here is the method: Four Drosophila strains were used, all obtained from the Bloomington Drosophila Stock Center (Indiana University; Bloomington, Ind.). The Canton-S strain was used as the insecticide-susceptible standard. […] Two resistant neurological-mutant strains were also tested. […] Flies were reared in 100-ml vials capped with acetate plugs (Fisher Scientific; Suwanee, Ga.) on a commercial diet (JAZZ-MIX; Fisher Scientific). […] Mixed-sex adults, less than 1-wk old, were used in bioassays.
All volatile insecticide stocks were prepared at 100 μg/μl in analytical grade acetone. Rather than weigh the highly volatile liquid insecticides (i.e., all compounds except benzothiophene), weight was determined based on the density-volume relationship of each compound. […] The insecticide synergists PBO (piperonyl butoxide) and DEF (SSS-tributyl-phosphoro-trithioate) were obtained from Fluka Chemical Co. (Basel, Switzerland) and Mobay Chemical Co. (Kansas City, Mo.). […] Synergist stocks were prepared at 100 μg/ml in analytical grade acetone.
Briefly, bioassays took place in 0.5-l glass jars with metal lids. Mixed-sex flies were isolated from lab colonies and placed in 4-ml dram vials in groups of ten, along with a dried piece of laboratory diet. The dram vials were capped with open-top septum caps that were covered with fine mesh (held in place by non-toxic glue). For bioassays, the assembled dram vials were placed into the 0.5-l jars along with a folded filter paper “tent” (Whatman #1; Vineland, N.J.). The filter paper was treated with either an insecticide dilution or acetone, the jar was sealed with the metal lid, and the bioassay proceeded for 24-hr at room temperature. Mortality was scored based on a complete lack of movement by the flies. Four concentrations plus an acetone control were tested for all insecticides. Between five and ten replicates were performed for each concentration range on each strain-insecticide combination. Synergist bioassays were performed with a slight modification. Synergist stocks were applied to dram vials at 100 μl per vial to provide assay concentrations of 10 μg per vial. […] After treatment, vials were held at an angle in a fume hood and rotated ¼-turn each minute until the acetone evaporated. Flies and diet were added as above and held for 1-hr. Assays were initiated, run, and scored as above.
Probit analysis was performed using PROC PROBIT in the SAS software package (SAS Institute; Cary, N.C.). If control mortality ever exceeded 10% in a given replicate, that replicate was discarded.

Setting [3] is: solvent carriers tested alone under optimized bioassay conditions.

Take `CCCCOC(=O)CC` [BUTYL propionate, butyl propionate]: the “LC50 (95% CL)” value in series [1] (in vivo) is reported as 2126.0 (1894.0 − 2670.0) μg/jar.
As for `COCCO` [methyl cellosolve], in series [1] (setting [3]), the “mortality elicited by solvent carrier” value is recorded as “No mortality”.
`CCOC(=O)CC` [ETHYL propionate, ethyl propionate]: the “LC50 (95% CL)” value in series [1] (in vivo) is given as 3395.0 (2439.0 − 9039.0) μg/jar.
As for methyl acetate, the “Slope ± Std. Error (best-fit probit mortality line)” value in series [1] (Table 1, Canton-S, 24 hr exposure, probit analysis) worked out at 2.86 ± 0.91. For the same compound, the “LC50 (95% CL)” value in series [1] (in vivo) is reported as 2268.0 (ND) μg/jar.
Turning to `CC(=O)OC(C)(C)C` [t-BUTYL acetate, t-butyl acetate], in series [1] (in vivo), the “LC50 (95% CL)” value was 2134.0 (1943.0 − 2598.0) μg/jar.
`CC(=O)OC(C)C` [ISO-PROPYL acetate, iso-propyl acetate]: the “LC50 (95% CL)” value in series [1] (in vivo) is given as 1611.0 (1458.0 − 1782.0) μg/jar.
In the case of `COP(=O)(OC)OC=C(Cl)Cl` [Dichlorvos (DDVP), Dichlorvos, reference compound], in series [2] (Table 2), the “Slope ± Std. Error (probit mortality line)” value is listed as 4.64 ± 0.59.
With `CCCOC(=O)CCC` [PROPYL butyrate, propyl butyrate], the “LC50 (95% CL)” value in series [1] (in vivo) is given as 2035.0 (ND) μg/jar.
Regarding `CCCCOC(C)=O` [n-BUTYL acetate, n-butyl acetate], the “LC50 (95% CL)” value in series [1] (in vivo) is on record as 1821.0 (1730.0 − 1930.0) μg/jar.
`O=COCCOC=O` [EGDF, ethylene glycol di-formate]: the “Slope ± Std. Error (probit mortality line)” value in series [2] (Table 2) was determined as 5.02 ± 2.41; in series [2] (Table 3, no synergist), 5.02 ± 2.41. For the same compound, the “response of Hikone-R relative to Canton-S (LC50 ratio Hikone÷Canton, FIG. 5), in words” value in series [2] was “significant resistance”. The knockdown in series [1] (Canton-S, by 2-hr, lasting through 24-hr, in all bioassay replicates) is 100%.
With `C[S+](C)[O-]` [DMSO], the “mortality elicited by solvent carrier” value in series [1] (setting [3]) is on record as “No mortality”.
On to `CCC(=O)OC` [METHYL propionate, methyl propionate], for which the “LC50 (95% CL)” value in series [1] (in vivo) was 2391.0 (2076.0 − 3433.0) μg/jar.
`CCCCC(=O)OCC` [ETHYL valerate, ethyl valerate]: in series [1] (in vivo), the “LC50 (95% CL)” value was 2092.0 (1837.0 − 2670.0) μg/jar.
In the case of `CC(C)=O` [acetone], in series [1] (setting [3]), the “mortality elicited by solvent carrier” value is “No mortality”.
Regarding `O=CO` [Formic Acid, reference compound], in series [2] (Table 2), the “Slope ± Std. Error (probit mortality line)” value is listed as 3.29 ± 1.02.
For the compound `CCO` [ethanol], in series [1] (in vivo), the “mortality elicited by solvent carrier” value is recorded as “No mortality”.
In the case of `CCCCCCOC(C)=O` [HEXYL acetate, hexyl acetate], the “LC50 (95% CL)” value in series [1] (in vivo) is reported as 1666.0 (1582.0 − 1755.0) μg/jar.
With `CCCOC(=O)CC` [PROPYL propionate, propyl propionate], in series [1] (in vivo), the “LC50 (95% CL)” value was 1931.0 (ND) μg/jar.
Consider `CO` [methanol], for which the “mortality elicited by solvent carrier” value in series [1] (setting [3]) was “No mortality”.
Take `Cc1oc2ccccc2c1C`: in series [1] (in vivo), the “LC50 (95% CL)” value is reported as 1960.0 (1543.0 − 2452.0) μg/jar.
With `CCCOC(C)=O` [PROPYL acetate, propyl acetate], the “LC50 (95% CL)” value in series [1] (in vivo) is recorded as 2056.0 (ND) μg/jar.
Turning to `CCCC(=O)OCC` [ETHYL butyrate, ethyl butyrate], the “LC50 (95% CL)” value in series [1] (in vivo) is 2034.0 (ND) μg/jar.
Turning to `CN=C=S` [Methylisothiocyanate (MITC), Methylisothiocyanate, reference compound], in series [2] (Table 2), the “Slope ± Std. Error (probit mortality line)” value was found to be 4.30 ± 0.62. In series [2], the “response of Hikone-R relative to Canton-S (LC50 ratio Hikone÷Canton, FIG. 5), in words” value is on record as “significantly enhanced susceptibility”.
For `CCCCCOC(C)=O` [PENTYL acetate, pentyl acetate], the “LC50 (95% CL)” value in series [1] (in vivo) is recorded as 1792.0 (1658.0 − 1987.0) μg/jar.
In the case of `CCOC(C)=O` [ETHYL acetate, ethyl acetate], in series [1] (in vivo), the “LC50 (95% CL)” value is listed as 3530.0 (2488.0 − 12723.0) μg/jar.
With `CC(C)O` [isopropanol], the “mortality elicited by solvent carrier” value in series [1] (setting [3]) worked out at 100%.
`CCCC(=O)OC` [METHYL butyrate, methyl butyrate]: the “LC50 (95% CL)” value in series [1] (in vivo) is recorded as 2026.0 (1872.0 − 2314.0) μg/jar.
Still for that read-out and setting: for `CCCCC(=O)OC` [METHYL valerate, methyl valerate] the value was 2209.0 (1897.0 − 2997.0) μg/jar; for `c1ccc2[nH]ccc2c1` [INDOLE, indole], 2769.0 (2137.0 − 7873.0) μg/jar.
Regarding `CCCCCC` [hexane], the “mortality elicited by solvent carrier” value in series [1] (in vivo) is given as “No mortality”.
